System: Vibrio fischerio
Assay: Microtox Response Test (bioluminescence of Microtox Acute Toxicity Reagent)
Type: cell-based
Conditions: pure anionic surfactant; EC50 for 50% decrease of bioluminescence, 5 minutes
Description: Reference: Microtox Manual: A Toxicity Testing Handbook, 1992 Volume I-IV; Microbics Corporation.
Equipment: Microtox M500 Toxicity Testing Unit; Microbics Corporation Connected to computer for data acquisition and analysis according to above reference.
1. Preparation of Sample Stock Solution (Standard Concentration: 1000 ppm)
The stock solution of the test anionic surfactant sample is prepared and used as a stock solution from which all other dilutions are made. The standard “starting concentration”, the highest concentration to be tested, is 500 ppm. […]
a) Turn on test unit and allow reagent well temperature to equilibrate at 5.5° C. and incubator block and read well temperature to equilibrate at 15° C. […]
c) Place the assay cuvette containing reagent which corresponds to the test blank into the read well and press SET. After the cuvette has resurfaced press READ and the value will be captured by the computer.
d) Similarly read the remaining 7 cuvettes containing reagent when prompted by the computer by pressing the READ button with the correct cuvette in the READ well.
e) After all 8 initial reading have been taken, transfer 500 μl of the diluted test substance into their corresponding cuvette containing the reagent. […]

`CCCCCCCCCCCCOS(=O)(=O)O.N` [ammonium lauryl sulfate] was tested, and the “Microtox Index” value was 1.0 ppm.
ammonium laureth-3 sulfate was tested, and the “Microtox Index” value was 120 ppm.

Source: patent publication US6488943B1, “Antimicrobial wipes which provide improved immediate germ reduction” (The Procter & Gamble Company, priority 1999, dated 2002)
